In patent EP4817687A2, “NUCLEOTIDE AND NUCLEOSIDE THERAPEUTIC COMPOSITIONS AND USES RELATED THERETO” (Emory University, priority 2013, dated 2015) one finds IC50, CC50 and EC50 data, which are given here for 2 compounds.

Data set [1] addresses T1, Human DNA pol α (Homo sapiens, UniProt P09884).
T1 sequence (P09884 1-1462): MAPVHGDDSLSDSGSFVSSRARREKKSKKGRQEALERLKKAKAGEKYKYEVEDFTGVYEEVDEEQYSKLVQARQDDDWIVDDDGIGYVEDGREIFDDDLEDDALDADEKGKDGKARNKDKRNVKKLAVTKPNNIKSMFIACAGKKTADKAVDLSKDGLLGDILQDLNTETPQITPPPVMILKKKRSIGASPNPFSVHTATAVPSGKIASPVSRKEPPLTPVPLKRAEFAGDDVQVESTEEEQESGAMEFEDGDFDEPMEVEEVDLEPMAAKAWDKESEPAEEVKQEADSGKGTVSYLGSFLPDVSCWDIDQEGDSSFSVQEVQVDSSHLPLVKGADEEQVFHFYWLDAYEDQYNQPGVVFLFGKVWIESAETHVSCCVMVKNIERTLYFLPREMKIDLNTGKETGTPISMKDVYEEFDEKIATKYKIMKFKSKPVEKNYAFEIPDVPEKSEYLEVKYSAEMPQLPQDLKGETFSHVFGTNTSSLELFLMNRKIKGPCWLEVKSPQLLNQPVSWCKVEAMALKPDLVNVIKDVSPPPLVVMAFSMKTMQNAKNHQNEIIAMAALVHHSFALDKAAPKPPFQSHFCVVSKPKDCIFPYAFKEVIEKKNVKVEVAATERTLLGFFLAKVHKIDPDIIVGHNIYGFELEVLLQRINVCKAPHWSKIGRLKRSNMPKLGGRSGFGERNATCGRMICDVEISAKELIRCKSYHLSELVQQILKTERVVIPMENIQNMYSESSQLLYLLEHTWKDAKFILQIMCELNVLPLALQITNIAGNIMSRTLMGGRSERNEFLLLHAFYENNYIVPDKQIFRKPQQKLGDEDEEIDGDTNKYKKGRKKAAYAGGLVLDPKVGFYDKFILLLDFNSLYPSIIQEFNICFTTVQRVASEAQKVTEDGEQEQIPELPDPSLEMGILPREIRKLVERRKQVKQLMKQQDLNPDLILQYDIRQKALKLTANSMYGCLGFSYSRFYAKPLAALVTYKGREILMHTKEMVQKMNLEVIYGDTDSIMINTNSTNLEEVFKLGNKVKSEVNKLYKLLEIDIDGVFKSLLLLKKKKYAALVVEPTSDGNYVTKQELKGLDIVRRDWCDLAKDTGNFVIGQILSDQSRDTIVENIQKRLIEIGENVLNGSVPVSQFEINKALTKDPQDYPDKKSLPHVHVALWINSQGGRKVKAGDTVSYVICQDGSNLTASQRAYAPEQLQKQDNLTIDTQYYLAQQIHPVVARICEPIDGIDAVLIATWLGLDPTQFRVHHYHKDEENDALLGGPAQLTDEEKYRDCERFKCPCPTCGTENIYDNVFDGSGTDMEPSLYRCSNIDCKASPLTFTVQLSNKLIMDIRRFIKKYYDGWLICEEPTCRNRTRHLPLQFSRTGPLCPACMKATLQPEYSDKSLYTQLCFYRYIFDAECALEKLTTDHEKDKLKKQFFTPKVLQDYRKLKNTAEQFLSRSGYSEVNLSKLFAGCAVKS
Briefly: Human DNA Polymerase Inhibition Assay, pol α. The format is biochemical.

Data set [2] deals with T2, Human DNA pol γ (Homo sapiens, UniProt P54098).
T2 sequence (P54098 1-1239): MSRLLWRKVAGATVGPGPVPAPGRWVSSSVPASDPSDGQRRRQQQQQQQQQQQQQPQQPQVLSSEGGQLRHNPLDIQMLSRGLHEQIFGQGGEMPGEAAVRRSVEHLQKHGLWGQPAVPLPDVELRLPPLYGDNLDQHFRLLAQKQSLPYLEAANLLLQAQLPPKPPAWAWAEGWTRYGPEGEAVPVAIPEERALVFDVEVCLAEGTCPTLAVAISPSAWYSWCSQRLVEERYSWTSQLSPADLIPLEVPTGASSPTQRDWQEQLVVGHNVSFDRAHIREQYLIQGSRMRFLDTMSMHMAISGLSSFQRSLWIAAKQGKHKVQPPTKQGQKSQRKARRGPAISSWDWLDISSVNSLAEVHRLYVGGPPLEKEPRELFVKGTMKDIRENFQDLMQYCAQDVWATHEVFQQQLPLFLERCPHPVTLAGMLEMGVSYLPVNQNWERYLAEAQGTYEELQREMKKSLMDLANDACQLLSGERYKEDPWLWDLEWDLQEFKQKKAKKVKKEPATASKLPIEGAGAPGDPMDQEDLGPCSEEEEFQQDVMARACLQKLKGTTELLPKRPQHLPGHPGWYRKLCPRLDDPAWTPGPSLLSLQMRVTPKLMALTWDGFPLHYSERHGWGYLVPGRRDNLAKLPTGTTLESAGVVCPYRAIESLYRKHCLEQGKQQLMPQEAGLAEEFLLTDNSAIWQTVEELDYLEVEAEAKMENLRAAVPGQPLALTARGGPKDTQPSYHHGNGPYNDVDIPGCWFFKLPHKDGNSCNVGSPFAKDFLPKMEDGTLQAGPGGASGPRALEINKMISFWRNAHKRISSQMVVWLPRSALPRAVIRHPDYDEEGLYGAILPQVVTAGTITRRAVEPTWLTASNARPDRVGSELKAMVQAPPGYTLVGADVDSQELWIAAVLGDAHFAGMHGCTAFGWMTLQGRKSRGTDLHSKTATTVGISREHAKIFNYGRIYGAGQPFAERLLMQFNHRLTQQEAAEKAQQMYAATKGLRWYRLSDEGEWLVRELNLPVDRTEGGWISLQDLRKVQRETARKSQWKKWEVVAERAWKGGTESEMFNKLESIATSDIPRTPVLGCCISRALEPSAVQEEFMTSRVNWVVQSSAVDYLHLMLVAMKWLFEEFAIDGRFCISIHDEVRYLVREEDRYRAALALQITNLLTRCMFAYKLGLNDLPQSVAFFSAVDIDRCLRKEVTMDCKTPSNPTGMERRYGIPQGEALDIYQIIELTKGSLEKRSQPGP
Description: Human DNA Polymerase Inhibition Assay, pol γ. The format is biochemical.

Data set [3] can be described thus: Anti-Dengue assay, toxicity (XTT) in Vero cells. As to conditions: monkey. (In general: Tetrazolium assays rely on reduction of a dye to a coloured formazan, in cell work by metabolically active cells.)
A short description of data set [4]: Anti-Dengue assay, toxicity (XTT) in Huh-7 cells. As to conditions: human.
In data set [5] the test system is Dengue Type 2. Description: Anti-Dengue Virus Cytoprotection Assay, Dengue Type 2.

Where two headings read alike, the source gives them in different places.

What is called IC50 is the point on the concentration scale where inhibition reaches its midpoint. Regarding `C[C@@]1(O)[C@H](O)[C@@H](COP(=O)(O)OP(=O)(O)OP(=O)(O)O)O[C@H]1n1ccc(=O)[nH]c1=S`, the IC50 in data set [1] and in data set [2] was greater than 1000 µM in each case.
What is called CC50 is the concentration giving 50% cytotoxicity. A word on the EC50: it is the concentration that produces a half-maximal response. `CC(C)OC(=O)[C@H](C)NP(=O)(OC[C@H]1O[C@@H](n2ccc(=O)[nH]c2=S)[C@](C)(O)[C@@H]1O)Oc1ccccc1` (stereo partly drawn) [drawing 474]: the cytotoxic concentration (CC50) in data set [3] and in data set [4] was greater than 100 µM in each case. Further, the EC50 came to 5.1 µM in data set [5] (Huh-7, read-out: Dengue Type 2 Huh-7 Cells (EC50 uM)) and 2.02 µM in data set [5] (Vero, read-out: Dengue Type 2 Vero Cells (EC50 uM)).
